How the values were obtained:
[1] = system: ABUTH (Velvetleaf); experiment: Postemergence herbicidal evaluation; type: in vivo, Abutilon theophrasti; conditions: postemergence
How it was run: (§1)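 First, seedlings were raised for around two weeks. Next, test material in 50/50 acetone/water containing 0.5% TWEEN 20 was sprayed through a nozzle at 40 psi, equivalent to about 0.0156–0.500 kg/ha. Finally, after 4–5 weeks in the greenhouse, plants were rated 0–9.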

[2] = system: AMBEL (Ragweed, Common); experiment: Postemergence herbicidal evaluation; type: in vivo, Ambrosia artemisifolia; conditions: postemergence
How it was run: as §1

[3] = system: ECHCG (Barnyardgrass); experiment: Postemergence herbicidal evaluation; type: in vivo, Echinochloa crus-galli; conditions: postemergence
How it was run: as §1

[4] = system: SETVI (Foxtail, Green); experiment: Postemergence herbicidal evaluation; type: in vivo, Setaria viridis; conditions: postemergence
How it was run: as §1

[5] = system: GLXMAW (Soybean, Williams); experiment: Postemergence herbicidal evaluation; type: in vivo, Glycine max, (L.) Merr. cv Williams; conditions: postemergence
How it was run: as §1

[6] = system: ORYSAT (Rice, Tebonnet); experiment: Postemergence herbicidal evaluation; type: in vivo, Oryza sativa, (L.) Tebonnet; conditions: postemergence
How it was run: as §1

[7] = system: TRZAWR (Wheat, Winter, cv Riband); experiment: Postemergence herbicidal evaluation; type: in vivo, Triticum aestivum; conditions: postemergence
How it was run: as §1

[8] = system: ABUTH (Velvetleaf); experiment: Preemergence herbicidal evaluation; type: in vivo, Abutilon theophrasti; conditions: preemergence, rated 4-5 weeks after treatment, 0-9 scale
How it was run: (§2)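 Herbicidal effect scored visually, 0-9, at 4 to 5 weeks against a control; compound applied preemergence by aqueous acetone spray to seeded soil at about 0.0156 to 0.500 kg/ha.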

[9] = system: CASOB (Sicklepod); experiment: Preemergence herbicidal evaluation; type: in vivo, Cassia obtusifolia; conditions: preemergence, rated 4-5 weeks after treatment, 0-9 scale
How it was run: as §2

[10] = system: SETVI (Foxtail, Green); experiment: Preemergence herbicidal evaluation; type: in vivo, Setaria viridis; conditions: preemergence, rated 4-5 weeks after treatment, 0-9 scale
How it was run: as §2

[11] = system: MOOVA (Monochoria); experiment: Preemergence weed control under flooded paddy conditions; type: in vivo, Monochoria vaginalis; conditions: rated 3-4 weeks after treatment
How it was run: (§3)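 Values are visual 0-9 scores against a control for a preemergence application into paddy flood water at about 0.0313 to 0.500 kg/ha. Greenhouse duration was three to four weeks.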

[12] = system: SAGPY (Arrowhead (Pygmaea)); experiment: as above; type: in vivo, Sagittaria pygmaea; conditions: rated 3-4 weeks after treatment
How it was run: as §3

[13] = system: CYPIR (Rice Flatsedge); experiment: Postemergence weed control under flooded paddy conditions; type: in vivo, Cyperus iria; conditions: postemergence weeds, rated 3 to 4 weeks after treatment
How it was run: (§4)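 Flood-water application, about 0.0313–0.500 kg/ha a.i. in aqueous/acetone 50/50 v/v; water depth 1.5–3 cm throughout. Weeds 3–5 cm, rice 1.5–2.5 leaf. Greenhouse; 0–9 visual rating vs control at 3–4 wk.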

[14] = system: SAGPY (Arrowhead (Pygmaea)); experiment: as above; type: in vivo, Sagittaria pygmaea; conditions: postemergence weeds, rated 3 to 4 weeks after treatment
How it was run: as §4

In the case of `C=CCN1C(=O)C(CC(=O)OCCF)SC1=Nc1cc(-n2c(=O)cc(C(F)(F)F)n(C)c2=O)c(F)cc1Cl` (centres unmarked) [Compound 86, 2-Fluoroethyl 3-allyl-2-{{2-chloro-5-[3,6-dihydro-3-methyl-2,6-dioxo-4-(trifluoromethyl)-1(2H)-pyrimidinyl]-4-fluorophenyl}imino}-4-oxo-5-thiazolidineacetate], the ABUTH herbicidal rating ([1]; rate 0.0156 kg/ha) is reported as 9.0, the ABUTH herbicidal rating ([1]; rate 0.0313 kg/ha) is reported as 9.0 and the ABUTH herbicidal rating ([1]; rate 0.0625 kg/ha) is reported as 9.0. For the same molecule, the ABUTH herbicidal rating ([1]; rate 0.1250 kg/ha) was 9.0, the AMBEL herbicidal rating ([2]; rate 0.0156 kg/ha) was 9.0 and the AMBEL herbicidal rating ([2]; rate 0.0313 kg/ha) was 9.0. The AMBEL herbicidal rating ([2]; rate 0.0625 kg/ha) was 9.0, the AMBEL herbicidal rating ([2]; rate 0.1250 kg/ha) was 9.0 and the ECHCG herbicidal rating ([3]; rate 0.0156 kg/ha) was 3.0. The ECHCG herbicidal rating ([3]; rate 0.0313 kg/ha) was 9.0, the ECHCG herbicidal rating ([3]; rate 0.0625 kg/ha) was 9.0 and the ECHCG herbicidal rating ([3]; rate 0.1250 kg/ha) was 9.0. The SETVI herbicidal rating ([4]; rate 0.0156 kg/ha) was 8.0, the SETVI herbicidal rating ([4]; rate 0.0313 kg/ha) was 9.0 and the SETVI herbicidal rating ([4]; rate 0.0625 kg/ha) was 9.0. The SETVI herbicidal rating ([4]; rate 0.1250 kg/ha) was 9.0, the GLXMAW herbicidal rating ([5]; rate 0.0156 kg/ha) was 8.5 and the GLXMAW herbicidal rating ([5]; rate 0.0313 kg/ha) was 9.0. The GLXMAW herbicidal rating ([5]; rate 0.0625 kg/ha) was 9.0, the GLXMAW herbicidal rating ([5]; rate 0.1250 kg/ha) was 9.0 and the ORYSAT herbicidal rating ([6]; rate 0.0156 kg/ha) was 3.0. It also gave an ORYSAT herbicidal rating ([6]; rate 0.0313 kg/ha) of 7.5, an ORYSAT herbicidal rating ([6]; rate 0.0625 kg/ha) of 7.5 and an ORYSAT herbicidal rating ([6]; rate 0.1250 kg/ha) of 8.5. For the same molecule, the TRZAWR herbicidal rating ([7]; rate 0.0156 kg/ha) was 6.0, the TRZAWR herbicidal rating ([7]; rate 0.0313 kg/ha) was 7.0 and the TRZAWR herbicidal rating ([7]; rate 0.0625 kg/ha) was 7.5. The TRZAWR herbicidal rating ([7]; rate 0.1250 kg/ha) was 8.5, the ABUTH rating ([8]; 0.0156 kg/ha) was 9.0 and the ABUTH rating ([8]; 0.0313 kg/ha) was 9.0. The ABUTH rating ([8]; 0.0625 kg/ha) was 9.0, the ABUTH rating ([8]; 0.1250 kg/ha) was 9.0 and the ABUTH rating ([8]; 0.2500 kg/ha) was 9.0. It also gave an ABUTH rating ([8]; 0.5000 kg/ha) of 9.0, a CASOB rating ([9]; 0.0156 kg/ha) of 0.0 and a CASOB rating ([9]; 0.0313 kg/ha) of 0.0. For the same molecule, the CASOB rating ([9]; 0.0625 kg/ha) was 0.0, the CASOB rating ([9]; 0.1250 kg/ha) was 0.0 and the CASOB rating ([9]; 0.2500 kg/ha) was 0.0. It also gave a CASOB rating ([9]; 0.5000 kg/ha) of 3.0, an SETVI rating ([10]; 0.0156 kg/ha) of 0.0 and an SETVI rating ([10]; 0.0313 kg/ha) of 0.0. The SETVI rating ([10]; 0.0625 kg/ha) was 4.0, the SETVI rating ([10]; 0.1250 kg/ha) was 8.0 and the SETVI rating ([10]; 0.2500 kg/ha) was 9.0. For the same molecule, the SETVI rating ([10]; 0.5000 kg/ha) was 9.0, the “MOOVA herbicidal effect rating” value ([11]; 0.0313 kg/ha) was 9.0 and the “MOOVA herbicidal effect rating” value ([11]; 0.0625 kg/ha) was 9.0. For the same molecule, the “MOOVA herbicidal effect rating” value ([11]; 0.1250 kg/ha) was 9.0, the “MOOVA herbicidal effect rating” value ([11]; 0.2500 kg/ha) was 9.0 and the “SAGPY herbicidal effect rating” value ([12]; 0.0313 kg/ha) was 5.0. The “SAGPY herbicidal effect rating” value ([12]; 0.0625 kg/ha) was 9.0, the “SAGPY herbicidal effect rating” value ([12]; 0.1250 kg/ha) was 9.0 and the “SAGPY herbicidal effect rating” value ([12]; 0.2500 kg/ha) was 9.0. The “Herbicidal rating CYPIR” value ([13]; Rate 0.0313 kg/ha) was 3.0, the “Herbicidal rating CYPIR” value ([13]; Rate 0.0625 kg/ha) was 7.0 and the “Herbicidal rating CYPIR” value ([13]; Rate 0.1250 kg/ha) was 8.0. For the same molecule, the “Herbicidal rating CYPIR” value ([13]; Rate 0.2500 kg/ha) was 9.0, the “Herbicidal rating SAGPY” value ([14]; Rate 0.0313 kg/ha) was 5.0 and the “Herbicidal rating SAGPY” value ([14]; Rate 0.0625 kg/ha) was 9.0. For the same molecule, the “Herbicidal rating SAGPY” value ([14]; Rate 0.1250 kg/ha) was 9.0 and the “Herbicidal rating SAGPY” value ([14]; Rate 0.2500 kg/ha) was 9.0.

Reference: US20020137929A1, “1 - (3-heterocyclylphenyl) isothiourea, -isourea, -guanidine and -amidine herbicidal agents” (Intellectual Property Department, BASF Aktiengesellschaft, priority 1998, published 2002)
